Results from US20230144619A1, “SALT OF ARYLAMINOPURINE DERIVATIVE, PREPARATION METHOD THEREFOR AND USE THEREOF” (CSPC Zhongqi Pharmaceutical Technology (Shijiazhuang) Co., …, priority 2020, published 2023).
Counter-ions that a name gives are not always drawn.

How the values were obtained:
[1] = Solubility test (UV spectrophotometer, saturated solutions shaken 24 hours); format: physicochemical; settings: 25° C.
Method: Detection instrument: Ultraviolet spectrophotometer/Evolution 300
The following solutions with pH=1.2, pH=4.5, and pH=6.8 and water were used as the solvent, and the solvent preparation process was as follows:
(1) pH=1.2 hydrochloric acid solution: To 7.65 mL of hydrochloric acid was added 1000 mL of water, and the mixture was shaken uniformly to obtain the target solution.
(2) pH=4.5 phosphate buffer solution: 6.8 g of potassium dihydrogen phosphate was taken and diluted with water to 1000 mL, and the mixture was shaken uniformly to obtain the target solution.
(2) pH=6.8 phosphate buffer solution: 6.8 g of potassium dihydrogen phosphate and 0.896 g of sodium hydroxide were taken and diluted with water to 1000 mL, and the mixture was shaken uniformly to obtain the target solution.
(4) Water: purified water
Test tubes with stopper were taken, and 10 mL of dissolution media at various pH values were precisely added to the test tubes respectively, and excessive stock drugs were added until supersaturated solutions were formed. The adding amounts were recorded. The solutions were shaken uniformly, sealed with stoppers, and shaken for 24 hours in a shaker. 2 mL of solutions were taken out at different time points respectively, and centrifuged. The resulting supernatants were taken, filtered, and the subsequent filtrates were taken for later use.
The above-mentioned saturated solutions in different solvents were taken, and solvents were added to dilute the solutions to certain volumes. The absorbances were measured at a wavelength of 287 nm.
Preparation of a solution of the reference substance: an appropriate amount of the compound represented by Formula 1 was taken as the reference substance, and precisely weighed. A solvent was added to dissolve and dilute the reference compound to produce a solution containing about 10 μg of the compound represented by Formula 1 per 1 mL. The absorbance was measured at a wavelength of 287 nm to calculate the solubility.
The salts obtained in Examples 1 and 3-17 and the compound represented by Formula 1 were subjected to the solubility test in media and the test results were shown in the following table: […]

[2] = Long-term stability test; format: physicochemical; settings: 25±2° C., relative humidity 60%±5%; for Content (%) / Moisture (%) / Related substances (%): packaged; for Acidity: pH value of 10 mg in 10 mL water
Method: Detection instrument: Karl Fischer moisture titrator/915 KF Ti-Touch
Test method: After the instrument was balanced, a proper amount (about 200 mg) of the test sample was taken, precisely weighed, and added to a titration cup, absolute methanol was used as the solvent, and a moisture titration solution was used for the direct measurement, and an average value was obtained by measuring each test sample twice.
Detection Instrument: High performance liquid chromatograph/Waters e2695-2489
Octadecyl silane bonded to silica gel was used as a filler (the applicable range of the pH value should be greater than 10.0), 20 mmol/L of disodium hydrogen phosphate solution (the pH value was adjusted to 10.0 with sodium hydroxide)-acetonitrile (65:35) was used as the mobile phase; the detection wavelength was 287 nm, and the column temperature was 30° C. The number of theoretical plates should be not less than 3000.
Determination method: About 20 mg of the sample was taken and precisely weighed, put in a 100 mL volumetric flask. A diluent (50% methanol/water) was added to dissolve and dilute the sample to the scale. The content was shaken uniformly, and 10 μL was precisely metered and injected into a liquid chromatograph, and the chromatogram was recorded; another appropriate amount of the reference substance was taken, and the same method was used for determination. The result was obtained by calculating the peak area according to the external standard method.
Detection instrument: Mettler Toledo S210-K pH meter
Test method: Based on the operation according to the pH value measurement method, 10 mg of a sample was precisely weighed, then 10 mL of freshly boiled and cooled purified water was added to dissolve the sample, and the mixture was shaken uniformly, and then the pH value was measured.
12. Measurement of Related Substances
Detection instrument: High performance liquid chromatograph/Waters e2695-2489
Chromatographic Conditions:
Octadecylsilane bonded to silica gel was used as a filler (Model: Waters Xbridge C18 chromatographic column, with a length of 250 mm, an inner diameter of 4.6 mm, and a filler particle size of 5 μm), the detection wavelength was 250 nm, the column temperature was 35° C., and the flow rate was 1.0 mL/minute, the mobile phase A was 0.02 mol/L of a disodium hydrogen phosphate solution (the pH value was adjusted to 10.0 with a sodium hydroxide solution), the mobile phase B was acetonitrile, and the diluent was methanol, and the temperature of the sample plate was 4° C.
Test method: The system applicability test was performed according to the requirements, and the test sample solution, the control solution, and the sensitivity solution were prepared. Each 10 μL of the control solution and the test sample solution were precisely metered and injected into a liquid chromatograph, and the chromatogram was recorded. The result was obtained by calculating the peak area according to the self-dilution control method with the correction factor.
An appropriate amount of the salt sample obtained from Example 1 was taken, a medicinal low-density polyethylene sack was used as the internal packaging, and a polyester/aluminum/polyethylene composite bag for medicine packaging was used as the external packaging. Samples were taken respectively at the end of the 3rd, 6th, 9th, 12th, and 18th months after being stored at a temperature of 25±2° C. under a relative humidity of 60%±5%. The appearances were compared, followed by measuring other investigation indexes. The results were compared with those measured in the 0th month.

[3] = tested on: MV4-11 (FLT3-ITD mutation) subcutaneous tumor model; test: In-vivo anti-tumor test, MV4-11 subcutaneous tumor model; set-up: species or system nude mice; settings: MV4-11 model, once daily oral administration for 21 days
Method: The salt sample obtained from Example 1 was tested (specifically for FLT3-ITD acute myeloid leukemia, non-small cell lung cancer with EGFR activating mutations, or Ph-positive chronic myeloid leukemia) according to the in-vivo anti-tumor test described in the biological assessment of the patent application WO2011/147066.

Solubility, Water medium pH = 1.2 ([1]; pH=1.2 hydrochloric acid solution): 33.89 mg/mL
Solubility, Water medium pH = 4.5 ([1]; pH=4.5 phosphate buffer solution): 47.27 mg/mL
Solubility, Water medium pH = 6.8 ([1]; pH=6.8 phosphate buffer solution): 50.62 mg/mL
Solubility, Water medium ([1]; water (purified water)): 40.41 mg/mL
Content (%) ([2]; 0 Month): 100.9%
Moisture (%) ([2]; 0 Month): 13.9%
Related substances (%) ([2]; 0 Month): 0.33%
Content (%) ([2]; 3 Month): 100.4%
Moisture (%) ([2]; 3 Month): 13.9%
Related substances (%) ([2]; 3 Month): 0.34%
Content (%) ([2]; 6 Month): 100.8%
Moisture (%) ([2]; 6 Month): 14.3%
Related substances (%) ([2]; 6 Month): 0.34%
Content (%) ([2]; 9 Month): 101.7%
Moisture (%) ([2]; 9 Month): 14.3%
Related substances (%) ([2]; 9 Month): 0.31%
Content (%) ([2]; 12 Month): 99.6%
Moisture (%) ([2]; 12 Month): 13.9%
Related substances (%) ([2]; 12 Month): 0.34%
Content (%) ([2]; 18 Month): 100.2%
Moisture (%) ([2]; 18 Month): 14.2%
Related substances (%) ([2]; 18 Month): 0.26%
Acidity ([2]; 0 Month): 3.1
Acidity ([2]; 3 Month): 3.3
Acidity ([2]; 6 Month): 3.3
Acidity ([2]; 9 Month): 3.3
Acidity ([2]; 12 Month): 3.3
Acidity ([2]; 18 Month): 3.3
Compound: CC(C)n1c(Nc2cccnc2)nc2cnc(Nc3ccc(N4CCN(C)CC4)cc3)nc21 [Example 1, arylaminopurine derivative.trihydrochloride.pentahydrate]
tumor growth ([3]; 5 mg/kg): completely inhibit the tumor growth
tumor growth ([3]; 10 mg/kg): complete regression of the tumor
tumor growth ([3]; 20 mg/kg): complete regression of the tumor
